Results from ChEMBL document CHEMBL1909294, “Translating clinical findings into knowledge in drug safety evaluation--drug induced liver injury prediction system (DILIps)” (PLoS Comput Biol, 2011).

Columns and labels:
Hepatotoxicity [1] = tested on: Hepatotoxicity;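 as to HepSE Combined Scores: combined hepatic side effect score as listed in the training data of the Drug Induced Liver Injury Prediction System (DILIps)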;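 as to HepSE bilirubinemia: bilirubinemia hepatic side effect score drawn from the DILIps training data, a prediction system for drug-induced liver injury; call rule not given here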;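 as to HepSE cirrhosis: cirrhosis hepatic side effect score taken from the DILIps (drug-induced liver injury prediction) training set; call rule not given here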; as to HepSE hepatic failure: call rule not given here;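 as to HepSE jaundice: Jaundice-related hepatic side-effect score drawn from the training data of the DILIps (drug-induced liver injury prediction system); call rule not given here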; as to HepSE liver disease: call rule not given here;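 as to HepSE liver function tests abnormal: hepatic side effect score taken from the DILIps (drug-induced liver injury prediction system) training data, here covering abnormal liver function test findings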
Hepatotoxicity [2] = tested on: Hepatotoxicity; remark: listed apart in the source;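 as to HepSE Combined Scores: combined hepatic side effect score as listed in the training data of the Drug Induced Liver Injury Prediction System (DILIps)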;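 as to HepSE bilirubinemia: bilirubinemia hepatic side effect score drawn from the DILIps training data, a prediction system for drug-induced liver injury; call rule not given here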;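 as to HepSE cirrhosis: cirrhosis hepatic side effect score taken from the DILIps (drug-induced liver injury prediction) training set; call rule not given here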; as to HepSE hepatic failure: call rule not given here;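 as to HepSE jaundice: Jaundice-related hepatic side-effect score drawn from the training data of the DILIps (drug-induced liver injury prediction system); call rule not given here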; as to HepSE liver disease: call rule not given here;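 as to HepSE liver function tests abnormal: hepatic side effect score taken from the DILIps (drug-induced liver injury prediction system) training data, here covering abnormal liver function test findings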
Hepatotoxicity [3] = tested on: Hepatotoxicity; remark: listed apart in the source;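 as to HepSE Combined Scores: combined hepatic side effect score as listed in the training data of the Drug Induced Liver Injury Prediction System (DILIps)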;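 as to HepSE bilirubinemia: bilirubinemia hepatic side effect score drawn from the DILIps training data, a prediction system for drug-induced liver injury; call rule not given here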;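 as to HepSE cirrhosis: cirrhosis hepatic side effect score taken from the DILIps (drug-induced liver injury prediction) training set; call rule not given here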; as to HepSE hepatic failure: call rule not given here;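 as to HepSE jaundice: Jaundice-related hepatic side-effect score drawn from the training data of the DILIps (drug-induced liver injury prediction system); call rule not given here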; as to HepSE liver disease: call rule not given here;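 as to HepSE liver function tests abnormal: hepatic side effect score taken from the DILIps (drug-induced liver injury prediction system) training data, here covering abnormal liver function test findings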
Hepatotoxicity [4] = tested on: Hepatotoxicity; remark: listed apart in the source;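 as to HepSE Combined Scores: combined hepatic side effect score as listed in the training data of the Drug Induced Liver Injury Prediction System (DILIps)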;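 as to HepSE bilirubinemia: bilirubinemia hepatic side effect score drawn from the DILIps training data, a prediction system for drug-induced liver injury; call rule not given here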;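 as to HepSE cirrhosis: cirrhosis hepatic side effect score taken from the DILIps (drug-induced liver injury prediction) training set; call rule not given here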; as to HepSE hepatic failure: call rule not given here;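 as to HepSE jaundice: Jaundice-related hepatic side-effect score drawn from the training data of the DILIps (drug-induced liver injury prediction system); call rule not given here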; as to HepSE liver disease: call rule not given here;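 as to HepSE liver function tests abnormal: hepatic side effect score taken from the DILIps (drug-induced liver injury prediction system) training data, here covering abnormal liver function test findings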
Hepatotoxicity [5] = tested on: Hepatotoxicity; remark: listed apart in the source; as to HepSE hepatic failure: call rule not given here; as to HepSE liver disease: call rule not given here
Hepatotoxicity [6] = tested on: Hepatotoxicity; remark: listed apart in the source; as to HepSE hepatic failure: call rule not given here; as to HepSE liver disease: call rule not given here
Hepatotoxicity [7] = tested on: Hepatotoxicity; remark: listed apart in the source
Hepatotoxicity [8] = tested on: Hepatotoxicity; remark: listed apart in the source
Hepatotoxicity [9] = tested on: Hepatotoxicity; remark: listed apart in the source
Hepatotoxicity [10] = tested on: Hepatotoxicity; remark: listed apart in the source
Hepatotoxicity [11] = tested on: Hepatotoxicity; remark: listed apart in the source
Hepatotoxicity [12] = tested on: Hepatotoxicity; remark: listed apart in the source
Hepatotoxicity [13] = tested on: Hepatotoxicity; remark: listed apart in the source
Hepatotoxicity [14] = tested on: Hepatotoxicity; remark: listed apart in the source

Structure (SMILES): Cc1onc(-c2ccccc2)c1-c1ccc(S(N)(=O)=O)cc1 [VALDECOXIB]
- HepSE_cirrhosis (Hepatotoxicity [1]): 0
- HepSE_Combined Scores (Hepatotoxicity [2]): 2
- HepSE_bilirubinemia (Hepatotoxicity [3]): 0
- HepSE_jaundice (Hepatotoxicity [4]): 0
- HepSE_liver disease (Hepatotoxicity [5]): 0
- HepSE_hepatitis (Hepatotoxicity [6]): 1
- HepSE_hepatic failure (Hepatotoxicity [7]): 0
- HepSE_liver function tests abnormal (Hepatotoxicity [8]): 0
- HepSE_hepatomegaly (Hepatotoxicity [9]): 0
- HepSE_hepatic necrosis (Hepatotoxicity [10]): 0
- HepSE_elevated liver function tests (Hepatotoxicity [11]): 0
- HepSE_liver fatty (Hepatotoxicity [12]): 0
- HepSE_cholelithiasis (Hepatotoxicity [13]): 1
- HepSE_cholecystitis (Hepatotoxicity [14]): 0

Structure (SMILES): CC(C)[C@H](N)C(=O)OCC(CO)OCn1cnc2c(=O)nc(N)[nH]c21 (some centres undefined) [VALGANCICLOVIR]
- HepSE_cirrhosis (Hepatotoxicity [1]): 0
- HepSE_Combined Scores (Hepatotoxicity [2]): 2
- HepSE_bilirubinemia (Hepatotoxicity [3]): 0
- HepSE_jaundice (Hepatotoxicity [4]): 1
- HepSE_liver disease (Hepatotoxicity [5]): 0
- HepSE_hepatitis (Hepatotoxicity [6]): 1
- HepSE_hepatic failure (Hepatotoxicity [7]): 0
- HepSE_liver function tests abnormal (Hepatotoxicity [8]): 0
- HepSE_hepatomegaly (Hepatotoxicity [9]): 0
- HepSE_hepatic necrosis (Hepatotoxicity [10]): 0
- HepSE_elevated liver function tests (Hepatotoxicity [11]): 0
- HepSE_liver fatty (Hepatotoxicity [12]): 0
- HepSE_cholelithiasis (Hepatotoxicity [13]): 0
- HepSE_cholecystitis (Hepatotoxicity [14]): 0

Structure (SMILES): CCCCC(=O)OCC(=O)[C@]1(O)Cc2c(O)c3c(c(O)c2[C@@H](O[C@H]2C[C@H](NC(=O)C(F)(F)F)[C@H](O)[C@H](C)O2)C1)C(=O)c1c(OC)cccc1C3=O [VALRUBICIN]
- HepSE_cirrhosis (Hepatotoxicity [1]): 0
- HepSE_Combined Scores (Hepatotoxicity [2]): 0
- HepSE_bilirubinemia (Hepatotoxicity [3]): 0
- HepSE_jaundice (Hepatotoxicity [4]): 0
- HepSE_liver disease (Hepatotoxicity [5]): 0
- HepSE_hepatitis (Hepatotoxicity [6]): 0
- HepSE_hepatic failure (Hepatotoxicity [7]): 0
- HepSE_liver function tests abnormal (Hepatotoxicity [8]): 0
- HepSE_hepatomegaly (Hepatotoxicity [9]): 0
- HepSE_hepatic necrosis (Hepatotoxicity [10]): 0
- HepSE_elevated liver function tests (Hepatotoxicity [11]): 0
- HepSE_liver fatty (Hepatotoxicity [12]): 0
- HepSE_cholelithiasis (Hepatotoxicity [13]): 0
- HepSE_cholecystitis (Hepatotoxicity [14]): 0

Structure (SMILES): CN[C@H](CC(C)C)C(=O)N[C@H]1C(=O)N[C@@H](CC(N)=O)C(=O)N[C@H]2C(=O)N[C@H]3C(=O)N[C@H](C(=O)N[C@H](C(=O)O)c4cc(O)cc(O)c4-c4cc3ccc4O)[C@H](O)c3ccc(c(Cl)c3)Oc3cc2cc(c3O[C@@H]2O[C@H](CO)[C@@H](O)[C@H](O)[C@H]2O[C@H]2C[C@](C)(N)[C@H](O)[C@H](C)O2)Oc2ccc(cc2Cl)[C@H]1O [VANCOMYCIN]
- HepSE_cirrhosis (Hepatotoxicity [1]): 0
- HepSE_Combined Scores (Hepatotoxicity [2]): 0
- HepSE_bilirubinemia (Hepatotoxicity [3]): 0
- HepSE_jaundice (Hepatotoxicity [4]): 0
- HepSE_liver disease (Hepatotoxicity [5]): 0
- HepSE_hepatitis (Hepatotoxicity [6]): 0
- HepSE_hepatic failure (Hepatotoxicity [7]): 0
- HepSE_liver function tests abnormal (Hepatotoxicity [8]): 0
- HepSE_hepatomegaly (Hepatotoxicity [9]): 0
- HepSE_hepatic necrosis (Hepatotoxicity [10]): 0
- HepSE_elevated liver function tests (Hepatotoxicity [11]): 0
- HepSE_liver fatty (Hepatotoxicity [12]): 0
- HepSE_cholelithiasis (Hepatotoxicity [13]): 0
- HepSE_cholecystitis (Hepatotoxicity [14]): 0

Structure (SMILES): c1cnc2cc3c(cc2n1)[C@@H]1CNC[C@H]3C1 [VARENICLINE]
- HepSE_cirrhosis (Hepatotoxicity [1]): 0
- HepSE_Combined Scores (Hepatotoxicity [2]): 1
- HepSE_bilirubinemia (Hepatotoxicity [3]): 0
- HepSE_jaundice (Hepatotoxicity [4]): 0
- HepSE_liver disease (Hepatotoxicity [5]): 0
- HepSE_hepatitis (Hepatotoxicity [6]): 0
- HepSE_hepatic failure (Hepatotoxicity [7]): 0
- HepSE_liver function tests abnormal (Hepatotoxicity [8]): 1
- HepSE_hepatomegaly (Hepatotoxicity [9]): 0
- HepSE_hepatic necrosis (Hepatotoxicity [10]): 0
- HepSE_elevated liver function tests (Hepatotoxicity [11]): 0
- HepSE_liver fatty (Hepatotoxicity [12]): 0
- HepSE_cholelithiasis (Hepatotoxicity [13]): 0
- HepSE_cholecystitis (Hepatotoxicity [14]): 0

Structure (SMILES): CC(=O)O[C@H]1C[C@@H]2CC[C@@H]3[C@H](CC[C@@]4(C)[C@H]3C[C@H]([N+]3(C)CCCCC3)[C@@H]4OC(C)=O)[C@@]2(C)C[C@@H]1N1CCCCC1 [VECURONIUM]
- HepSE_cirrhosis (Hepatotoxicity [1]): 0
- HepSE_Combined Scores (Hepatotoxicity [2]): 0
- HepSE_bilirubinemia (Hepatotoxicity [3]): 0
- HepSE_jaundice (Hepatotoxicity [4]): 0
- HepSE_liver disease (Hepatotoxicity [5]): 0
- HepSE_hepatitis (Hepatotoxicity [6]): 0
- HepSE_hepatic failure (Hepatotoxicity [7]): 0
- HepSE_liver function tests abnormal (Hepatotoxicity [8]): 0
- HepSE_hepatomegaly (Hepatotoxicity [9]): 0
- HepSE_hepatic necrosis (Hepatotoxicity [10]): 0
- HepSE_elevated liver function tests (Hepatotoxicity [11]): 0
- HepSE_liver fatty (Hepatotoxicity [12]): 0
- HepSE_cholelithiasis (Hepatotoxicity [13]): 0
- HepSE_cholecystitis (Hepatotoxicity [14]): 0

Structure (SMILES): COc1ccc(C(CN(C)C)C2(O)CCCCC2)cc1 (centres undefined) [VENLAFAXINE]
- HepSE_cirrhosis (Hepatotoxicity [1]): 1
- HepSE_Combined Scores (Hepatotoxicity [2]): 7
- HepSE_bilirubinemia (Hepatotoxicity [3]): 1
- HepSE_jaundice (Hepatotoxicity [4]): 1
- HepSE_liver disease (Hepatotoxicity [5]): 0
- HepSE_hepatitis (Hepatotoxicity [6]): 1
- HepSE_hepatic failure (Hepatotoxicity [7]): 0
- HepSE_liver function tests abnormal (Hepatotoxicity [8]): 0
- HepSE_hepatomegaly (Hepatotoxicity [9]): 0
- HepSE_hepatic necrosis (Hepatotoxicity [10]): 0
- HepSE_elevated liver function tests (Hepatotoxicity [11]): 0
- HepSE_liver fatty (Hepatotoxicity [12]): 1
- HepSE_cholelithiasis (Hepatotoxicity [13]): 1
- HepSE_cholecystitis (Hepatotoxicity [14]): 1

Structure (SMILES): C=CC(N)CCC(=O)O (centres undefined) [VIGABATRIN]
- HepSE_cirrhosis (Hepatotoxicity [1]): 0
- HepSE_Combined Scores (Hepatotoxicity [2]): 0
- HepSE_bilirubinemia (Hepatotoxicity [3]): 0
- HepSE_jaundice (Hepatotoxicity [4]): 0
- HepSE_liver disease (Hepatotoxicity [5]): 0
- HepSE_hepatitis (Hepatotoxicity [6]): 0
- HepSE_hepatic failure (Hepatotoxicity [7]): 0
- HepSE_liver function tests abnormal (Hepatotoxicity [8]): 0
- HepSE_hepatomegaly (Hepatotoxicity [9]): 0
- HepSE_hepatic necrosis (Hepatotoxicity [10]): 0
- HepSE_elevated liver function tests (Hepatotoxicity [11]): 0
- HepSE_liver fatty (Hepatotoxicity [12]): 0
- HepSE_cholelithiasis (Hepatotoxicity [13]): 0
- HepSE_cholecystitis (Hepatotoxicity [14]): 0

Structure (SMILES): CC[C@]1(O)C[C@@H]2CN(CCc3c([nH]c4ccccc34)[C@@](C(=O)OC)(c3cc4c(cc3OC)N(C)[C@H]3[C@@](O)(C(=O)OC)[C@H](OC(C)=O)[C@]5(CC)C=CCN6CC[C@]43[C@@H]65)C2)C1 [VINBLASTINE]
- HepSE_cirrhosis (Hepatotoxicity [1]): 0
- HepSE_Combined Scores (Hepatotoxicity [2]): 0
- HepSE_bilirubinemia (Hepatotoxicity [3]): 0
- HepSE_jaundice (Hepatotoxicity [4]): 0
- HepSE_liver disease (Hepatotoxicity [5]): 0
- HepSE_hepatitis (Hepatotoxicity [6]): 0
- HepSE_hepatic failure (Hepatotoxicity [7]): 0
- HepSE_liver function tests abnormal (Hepatotoxicity [8]): 0
- HepSE_hepatomegaly (Hepatotoxicity [9]): 0
- HepSE_hepatic necrosis (Hepatotoxicity [10]): 0
- HepSE_elevated liver function tests (Hepatotoxicity [11]): 0
- HepSE_liver fatty (Hepatotoxicity [12]): 0
- HepSE_cholelithiasis (Hepatotoxicity [13]): 0
- HepSE_cholecystitis (Hepatotoxicity [14]): 0

Structure (SMILES): CC[C@]1(O)C[C@H]2CN(CCc3c([nH]c4ccccc34)[C@@](C(=O)OC)(c3cc4c(cc3OC)N(C=O)[C@H]3[C@@](O)(C(=O)OC)[C@H](OC(C)=O)[C@]5(CC)C=CCN6CC[C@]43[C@@H]65)C2)C1 [VINCRISTINE]
- HepSE_cirrhosis (Hepatotoxicity [1]): 0
- HepSE_Combined Scores (Hepatotoxicity [2]): 0
- HepSE_bilirubinemia (Hepatotoxicity [3]): 0
- HepSE_jaundice (Hepatotoxicity [4]): 0
- HepSE_liver disease (Hepatotoxicity [5]): 0
- HepSE_hepatitis (Hepatotoxicity [6]): 0
- HepSE_hepatic failure (Hepatotoxicity [7]): 0
- HepSE_liver function tests abnormal (Hepatotoxicity [8]): 0
- HepSE_hepatomegaly (Hepatotoxicity [9]): 0
- HepSE_hepatic necrosis (Hepatotoxicity [10]): 0
- HepSE_elevated liver function tests (Hepatotoxicity [11]): 0
- HepSE_liver fatty (Hepatotoxicity [12]): 0
- HepSE_cholelithiasis (Hepatotoxicity [13]): 0
- HepSE_cholecystitis (Hepatotoxicity [14]): 0

Structure (SMILES): CCC1=C[C@@H]2CN(C1)Cc1c([nH]c3ccccc13)[C@@](C(=O)OC)(c1cc3c(cc1OC)N(C)[C@H]1[C@@](O)(C(=O)OC)[C@H](OC(C)=O)[C@]4(CC)C=CCN5CC[C@]31[C@@H]54)C2 [VINORELBINE]
- HepSE_cirrhosis (Hepatotoxicity [1]): 0
- HepSE_Combined Scores (Hepatotoxicity [2]): 0
- HepSE_bilirubinemia (Hepatotoxicity [3]): 0
- HepSE_jaundice (Hepatotoxicity [4]): 0
- HepSE_liver disease (Hepatotoxicity [5]): 0
- HepSE_hepatitis (Hepatotoxicity [6]): 0
- HepSE_hepatic failure (Hepatotoxicity [7]): 0
- HepSE_liver function tests abnormal (Hepatotoxicity [8]): 0
- HepSE_hepatomegaly (Hepatotoxicity [9]): 0
- HepSE_hepatic necrosis (Hepatotoxicity [10]): 0
- HepSE_elevated liver function tests (Hepatotoxicity [11]): 0
- HepSE_liver fatty (Hepatotoxicity [12]): 0
- HepSE_cholelithiasis (Hepatotoxicity [13]): 0
- HepSE_cholecystitis (Hepatotoxicity [14]): 0
